Data as given in patent US4599331A, “Etianic acids as antiangiogenics” (Syntex (U.S.A.) Inc., priority 1984, dated 1986).
Values joined by “and” are separate entries in the source; they are usually repeats but may differ in a detail not shown here. Identical values can stand only once.

Columns and labels:
[1] = tested on: tyrosine aminotransferase (TAT); experiment: tyrosine aminotransferase (TAT) induction in HTC cells; assay type: cell-based, rat; settings: Rattus norvegicus, Table 1, 24 or 48 hours, from 10^-6 M down, relative to dexamethasone = 1, read-out: Efficacy (DEX = 1) TAT
Protocol: In this example, tyrosine aminotransferase (TAT) activity was determined by a spectrophotometric assay. This enzyme catalyzes the conversion of tyrosine to p-hydroxyphenylpyruvate. This example is a standard in vitro test for glucocorticoid activity.
Addition of base caused the conversion of p-hydroxyphenylpyruvate to p-hydroxybenzaldehyde, which was quantitatively measured by absorbance at 331 nm. HTC cells, the target cells for the compound tested were grown in DMEM+10% FCS. Subconfluent cell cultures were incubated with test compounds in 6 well Costar dishes for 24 or 48 hours. The cells were incubated in either serum-free DMEM or DMEM containing 10% FCS previously filtered over activated charcoal. The cells were harvested in PBS using a rubber policeman, then washed once in PBS by centrifugation and resuspended in a 0.3 ml lysis buffer of 10 mM Tris, 10 mM EDTA and 0.25M sucrose at pH 7.4. The cells were then lysed by three cycles of freeze-thawing using dry ice and a 37° C. waterbath and the cells debris was pelleted by centrifugation for 2 min at 12,000 9 in an Eppendorf centrifuge.
The supernatant was used for a protein determination using either E+K stain or BioRad protein assay kit and TAT activity. 0.1 ml TAT buffer having 50 mM KH2 PO4, 1 mM EDTA, 0.1 mM Dithiothereitol (DTT), and 5 mg/ml BSA at pH 7.6 and 0.1 ml cell extract were mixed in glass tubes. A prewarmed mixture of 200 parts of a 2.3 mg/ml tyrosine solution in 0.05M phosphate buffer, 100 parts 0.125M KH2 PO4, 10 parts of a 0.92 mg/ml and ketoglutarate solution and 1 part of a 0.04 mg/ml pyridoxalphosphate solution had been previously made up. […] of the prewarmed mixture was added to each tube and allowed to react at 37° C. for 15 min. The addition of 0.1 ml 7N […] stopped the reaction. The mixture was then immediately vortexed.
Aldehyde formation was allowed to proceed at 37° C. for 30 min. The amound of aldehyde formed was determined by UV spectroscopic means. Absorbance was read at 331 nm using a solution composed of 0.1 ml TAT buffer, 0.1 ml lysis buffer, 0.7 ml reaction mixture and 0.1 ml 7N KOH as a blank. Optical Density values are linearily corrected for protein content.
As the absolute amount of enzyme induction varies between experiments, results are expressed as percent of the maximal induction obtained with dexamethasone, which was run as a standard in each assay.
In this series, compounds were assayed from 10^-6 M down. Results are expressed in the TAT column of tables 1, and 2 as the induction ability of a compound as compared to dexamethasone; a compound may either be a partial inducer or a superinducer.

[2] = tested on: alkaline phosphatase (APb); experiment: alkaline phosphatase (APb) induction in LE II cells; assay type: cell-based, mouse; settings: Mus musculus, Table 1, about 65 hours, relative to dexamethasone = 1, read-out: Efficacy (DEX = 1) Alk P
Protocol: This is another standard test for glucocorticoid activity.
LE II cells were grown in DMEM plus 10% FCS, at 37° C., in a 10% carbon dioxide atmosphere. Confluent monolayers of cells were trypsinized and seeded at a 1:15 dilution into 6-well Costar cluster dishes. […] In all experiments, DEX, at concentrations of 10^-9 to 10^-6 M, was added to some of the wells as a positive control.
Cell monolayers were washed with PBS and harvested by scraping with a rubber policeman into 400 μl of a buffer of 20 mM Tris-HCl at pH 7.4; 2 mM MgCl2; and 150 mM NaCl together with 1% Triton X-100. Samples were transferred into 1.5 ml Eppendorf centrifuge tubes and placed on ice. The tubes were first vortexed and then centrifuged in the Eppendorf minicentrifuge for 2 minutes. Duplicate 100 μl aliquots of supernatant were placed into 12×75 mm glass test tubes for determination of APb activity, while the rest was saved for protein determination. […] The tubes were incubated in a 37° C. water bath for between 20 to 50 minutes, depending on the activity of the samples. The APb reaction was terminated by the addition of 0.5 ml of […]. The tubes were mixed and 200 μl portions from each tube were transferred in triplicate to a 96 well microtiter plate. The OD410 nm of each well was then determined using a Dynatech plate reader.
[…] of the cell supernatant were transferred to 96 well microtiter plates for protein determination by a modification of the Lowry method. […] The plates were shaken for 1 hour and then the OD630 was determined using a Dynatech plate reader. The protein content for each sample was calculated by comparing the average OD630 reading with those obtained for a bovine serum albumin standard curve.
The alkaline phosphatase activity of in each sample was expressed as μmoles product formed per minute per mg protein in the Alk P column of Tables 1 and 2. Results are expressed as the induction ability of a compound as compared to dexamethasone.

Epidermal Growth Factor = experiment: hamster cheek pouch (HCP) angiogenesis inhibition, EGF stimulus; assay type: in vivo, Male Syrian Golden hamsters; settings: Table 1; 10 μg EGF; between 0.5 and 4 mg/kg s.c. daily; each number independent result, average of six animals
Protocol: Each compound of the series was also tested for anti-angiogenic activity by an in vivo test that measured vascularization in a hamster's cheek pouch in response to either an angiogenic polypeptide growth factor, epidermal growth factor (EGF) or an induced […].
In this example, the in vivo angiogenesis inhibition activity of etianic acid esters was tested. Male Syrian Golden hamsters, weighing between 120 g and 150 g were anaesthetized by intraperitoneal (I.P.) injection of a rodent anaesthetic mixture consisting of 50 mg/kg ketamine hydrochloride, 5 mg/kg xylazine and 1 mg/kg acepromazine. The left cheek pouch of each animal was everted with a pincet and pinned down to a plexiglass-rubber stage and observed through a Zeiss stereomicroscope. 10 μg of EGF or 3×10^5 Hamster Melanoma RPM1 1846 tumor cells in 10 μl Cibachrome Blue agarose (Amicon) were injected subcutaneously in the left lower quadrant of the pouch with a Hamilton syringe.
The pouch was then reinserted and animals were kept under observation until recovered from anaesthesia.
The animals were dosed daily with one test compound, starting one day before stimulus injection and continuing until observation. The test compounds were dissolved in a minimum volume of ethanol and diluted in sterile phosphate buffer solution. […]
Either five days or twelve days after the EGF or tumor cell injection, animals were anaesthetized by I.P. injection of the rodent anaesthetic mixture. The pouch was everted on the stage and examined under the stereomicroscope. Pictures were taken with a 35 mm using Kodak Tungsten 50 professional films.
The following subjective scoring was used for evaluating the photographs:
1: minimal branching of vessels in the vicinity of injection site.
2: new vessels reach injection site, area involved is minimal (<50% of area surrounding injection site).
3: many vessels reach and cross injection site, new vessels are tortuous, (>50% of area surrounding injection site).
4: "full blown", many tortuous vessels, leakages, hemorrhages, 100% of area around injection site, invasion of new vessels into non-injected areas.
Results are expressed as the mean of the score. The results are shown in Tables 1 and 2 are percent inhibition of HCP Stimulus.

Row | SMILES | Emax [1] [%] | Emax [2] [%] | % Inhibition HCP Stimulus Epidermal Growth Factor (Epidermal Growth Factor)
1 | CCC(=O)O[C@]1(C(=O)OC)[C@H](C)C[C@H]2[C@@H]3CC(F)C4=C(F)C(=O)C=C[C@]4(C)[C@@]3(F)[C@@H](O)C[C@@]21C (stereo partly drawn) [compound 8] | 100 | 120 | 100% and 72% and 82%
2 | CCC(=O)O[C@]1(C(=O)OC)[C@H](C)C[C@H]2[C@@H]3CC(F)C4=CC(=O)C=C[C@]4(C)[C@@]3(F)[C@@H](O)C[C@@]21C (stereo partly drawn) [compound 7] | 200 | 110 | 57%
3 | CCC(=O)O[C@]1(C(=O)OC)[C@@H](C)C[C@H]2[C@@H]3CCC4=CC(=O)C=C[C@]4(C)[C@@]3(F)[C@@H](O)C[C@@]21C [compound 1] | 100 | 100 | 70% and 77%
4 | CCC(=O)O[C@]1(C(=O)OC)[C@@H](C)C[C@H]2[C@@H]3CC(F)C4=C(F)C(=O)C=C[C@]4(C)[C@@]3(F)[C@@H](O)C[C@@]21C (stereo partly drawn) [compound 3] | 150 | 100 | 95% and 91%
5 | CCCC(=O)O[C@]1(C(=O)OC)[C@H](C)C[C@H]2[C@@H]3CC(F)C4=CC(=O)C=C[C@]4(C)[C@@]3(F)[C@@H](O)C[C@@]21C (stereo partly drawn) [compound 9] | 90 | 90 | 100%
6 | CCCC(=O)O[C@]1(C(=O)OC)[C@@H](C)C[C@H]2[C@@H]3CC(F)C4=CC(=O)C=C[C@]4(C)[C@@]3(F)[C@@H](O)C[C@@]21C (stereo partly drawn) [compound 4] | 100 | 170 | 100% and 78%
